# What was measured:
# [1] = tested on: CHEAL (Lambsquarters, Common); experiment: Preemergence herbicidal evaluation; assay type: in vivo, Chenopodium album; conditions: rated 4-5 weeks after treatment, rating scale 0-9
# How it was run: (§1)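 Sown cups got a single aqueous acetone spray of test compound (roughly 0.0156–0.500 kg/ha) before seedlings emerged. Evaluation, 4–5 weeks on, used a 0–9 visual scale covering plant stand, vigor, size, malformation, chlorosis and general appearance compared with controls.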
# ABUTH (Velvetleaf) = experiment: Preemergence herbicidal evaluation; assay type: in vivo, Abutilon theophrasti; conditions: rated 4-5 weeks after treatment, rating scale 0-9
# How it was run: as §1
# MOOVA (Monochoria) = experiment: Preemergence weed control under flooded paddy conditions; assay type: in vivo, Monochoria vaginalis; conditions: rated 3-4 weeks after treatment
# How it was run: (§2)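 Seeds or propagules sown in top 0.5 cm of silt loam soil, flooded 1.5 to 3 cm above surface throughout. Compound in 50/50 v/v aqueous/acetone pipetted into flood water at about 0.0313 to 0.500 kg/ha. Visual 0-9 rating versus control after three to four weeks in greenhouse.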
# [2] = tested on: CHEAL (Lambsquarters, Common); experiment: Postemergence herbicidal evaluation; assay type: in vivo, Chenopodium album; conditions: postemergence
# How it was run: (§3)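 Visual 0-9 injury score (stand, vigor, malformation, size, chlorosis, appearance vs untreated) taken four to five weeks post-spray, averaged across repeat tests. Test plants about two weeks old; foliar spray of acetone/water (1:1) with 0.5% surfactant delivering ~0.0156-0.500 kg active/ha.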
# ORYSAT (Rice, Tebonnet) = experiment: Preemergence herbicidal evaluation; assay type: in vivo, Oryza sativa, (L.) Tebonnet; conditions: rated 4-5 weeks after treatment, rating scale 0-9
# How it was run: as §1
# ECHCG (Barnyardgrass) = experiment: Postemergence herbicidal evaluation; assay type: in vivo, Echinochloa crus-galli; conditions: postemergence
# How it was run: as §3
# [3] = tested on: SAGPY (Arrowhead (Pygmaea)); experiment: Preemergence weed control under flooded paddy conditions; assay type: in vivo, Sagittaria pygmaea; conditions: rated 3-4 weeks after treatment
# How it was run: as §2
# AMBEL (Ragweed, Common) [4] = experiment: Preemergence herbicidal evaluation; assay type: in vivo, Ambrosia artemisifolia; conditions: rated 4-5 weeks after treatment, rating scale 0-9
# How it was run: as §1
# [5] = tested on: TRZAWR (Wheat, Winter, cv Riband); experiment: Postemergence herbicidal evaluation; assay type: in vivo, Triticum aestivum; conditions: postemergence
# How it was run: as §3
# CASOB (Sicklepod) [6] = experiment: Postemergence herbicidal evaluation; assay type: in vivo, Cassia obtusifolia; conditions: postemergence
# How it was run: as §3
# [7] = tested on: GLXMAW (Soybean, Williams); experiment: Preemergence herbicidal evaluation; assay type: in vivo, Glycine max, (L.) Merr. cv Williams; conditions: rated 4-5 weeks after treatment, rating scale 0-9
# How it was run: as §1
# [8] = tested on: IPOHE (Morningglory, Ivyleaf); experiment: Preemergence herbicidal evaluation; assay type: in vivo, Ipomoea hederacea; conditions: rated 4-5 weeks after treatment, rating scale 0-9
# How it was run: as §1
# [9] = tested on: IPOHE (Morningglory, Ivyleaf); experiment: Postemergence herbicidal evaluation; assay type: in vivo, Ipomoea hederacea; conditions: postemergence
# How it was run: as §3
# AMBEL (Ragweed, Common) [10] = experiment: Postemergence herbicidal evaluation; assay type: in vivo, Ambrosia artemisifolia; conditions: postemergence
# How it was run: as §3
# [11] = tested on: GLXMAW (Soybean, Williams); experiment: Postemergence herbicidal evaluation; assay type: in vivo, Glycine max, (L.) Merr. cv Williams; conditions: postemergence
# How it was run: as §3
# CASOB (Sicklepod) [12] = experiment: Preemergence herbicidal evaluation; assay type: in vivo, Cassia obtusifolia; conditions: rated 4-5 weeks after treatment, rating scale 0-9
# How it was run: as §1
smiles,measurement,setting,value
"COc1ccc(CN2C(=O)CSC2=Nc2cc(-n3c(=O)cc(C(F)(F)F)n(C)c3=O)c(F)cc2Cl)c(OC)c1 [Compound 139, 3-{4-Chloro-5-{[3-(2,4-dimethoxybenzyl)-4-oxo-2-thiazolidinylidene]amino}-2-fluorophenyl}-1-methyl-6-(trifluoromethyl)-2,4(1H,3H)-pyrimidinedione]",Preemergence herbicidal rating CHEAL,[1]; rate 0.0156 kg/ha,0.0
same,Preemergence herbicidal rating CHEAL,[1]; rate 0.0313 kg/ha,7.0
same,Preemergence herbicidal rating CHEAL,[1]; rate 0.0625 kg/ha,9.0
same,Preemergence herbicidal rating CHEAL,[1]; rate 0.1250 kg/ha,9.0
same,Preemergence herbicidal rating CHEAL,[1]; rate 0.2500 kg/ha,9.0
same,Preemergence herbicidal rating ABUTH,ABUTH (Velvetleaf); rate 0.0156 kg/ha,0.0
same,Preemergence herbicidal rating ABUTH,ABUTH (Velvetleaf); rate 0.0313 kg/ha,0.0
same,Preemergence herbicidal rating ABUTH,ABUTH (Velvetleaf); rate 0.0625 kg/ha,0.0
same,Preemergence herbicidal rating ABUTH,ABUTH (Velvetleaf); rate 0.1250 kg/ha,9.0
same,Preemergence herbicidal rating ABUTH,ABUTH (Velvetleaf); rate 0.2500 kg/ha,9.0
same,"herbicidal effect rating, MOOVA",MOOVA (Monochoria); 0.0313 kg/ha,4.0
same,"herbicidal effect rating, MOOVA",MOOVA (Monochoria); 0.0625 kg/ha,5.0
same,"herbicidal effect rating, MOOVA",MOOVA (Monochoria); 0.1250 kg/ha,7.0
same,"herbicidal effect rating, MOOVA",MOOVA (Monochoria); 0.2500 kg/ha,7.0
same,herbicidal rating CHEAL,[2]; rate 0.0156 kg/ha,9.0
same,herbicidal rating CHEAL,[2]; rate 0.0313 kg/ha,9.0
same,herbicidal rating CHEAL,[2]; rate 0.0625 kg/ha,9.0
same,Preemergence herbicidal rating ORYSAT,"ORYSAT (Rice, Tebonnet); rate 0.0156 kg/ha",0.0
same,Preemergence herbicidal rating ORYSAT,"ORYSAT (Rice, Tebonnet); rate 0.0313 kg/ha",0.0
same,Preemergence herbicidal rating ORYSAT,"ORYSAT (Rice, Tebonnet); rate 0.0625 kg/ha",0.0
same,Preemergence herbicidal rating ORYSAT,"ORYSAT (Rice, Tebonnet); rate 0.1250 kg/ha",1.0
same,Preemergence herbicidal rating ORYSAT,"ORYSAT (Rice, Tebonnet); rate 0.2500 kg/ha",2.0
same,herbicidal rating ECHCG,ECHCG (Barnyardgrass); rate 0.0156 kg/ha,3.0
same,herbicidal rating ECHCG,ECHCG (Barnyardgrass); rate 0.0313 kg/ha,2.0
same,herbicidal rating ECHCG,ECHCG (Barnyardgrass); rate 0.0625 kg/ha,3.0
same,"herbicidal effect rating, SAGPY",[3]; 0.0313 kg/ha,0.0
same,"herbicidal effect rating, SAGPY",[3]; 0.0625 kg/ha,0.0
same,"herbicidal effect rating, SAGPY",[3]; 0.1250 kg/ha,0.0
same,"herbicidal effect rating, SAGPY",[3]; 0.2500 kg/ha,0.0
same,Preemergence herbicidal rating AMBEL,"AMBEL (Ragweed, Common) [4]; rate 0.0156 kg/ha",0.0
same,Preemergence herbicidal rating AMBEL,"AMBEL (Ragweed, Common) [4]; rate 0.0313 kg/ha",1.0
same,Preemergence herbicidal rating AMBEL,"AMBEL (Ragweed, Common) [4]; rate 0.0625 kg/ha",0.0
same,Preemergence herbicidal rating AMBEL,"AMBEL (Ragweed, Common) [4]; rate 0.1250 kg/ha",3.0
same,Preemergence herbicidal rating AMBEL,"AMBEL (Ragweed, Common) [4]; rate 0.2500 kg/ha",4.0
same,herbicidal rating TRZAWR,[5]; rate 0.0156 kg/ha,2.5
same,herbicidal rating TRZAWR,[5]; rate 0.0313 kg/ha,3.0
same,herbicidal rating TRZAWR,[5]; rate 0.0625 kg/ha,3.5
same,herbicidal rating CASOB,CASOB (Sicklepod) [6]; rate 0.0156 kg/ha,4.0
same,herbicidal rating CASOB,CASOB (Sicklepod) [6]; rate 0.0313 kg/ha,5.0
same,herbicidal rating CASOB,CASOB (Sicklepod) [6]; rate 0.0625 kg/ha,9.0
same,Preemergence herbicidal rating GLXMAW,[7]; rate 0.0156 kg/ha,0.0
same,Preemergence herbicidal rating GLXMAW,[7]; rate 0.0313 kg/ha,1.0
same,Preemergence herbicidal rating GLXMAW,[7]; rate 0.0625 kg/ha,0.0
same,Preemergence herbicidal rating GLXMAW,[7]; rate 0.1250 kg/ha,0.0
same,Preemergence herbicidal rating GLXMAW,[7]; rate 0.2500 kg/ha,1.0
same,Preemergence herbicidal rating IPOHE,[8]; rate 0.0156 kg/ha,0.0
same,Preemergence herbicidal rating IPOHE,[8]; rate 0.0313 kg/ha,0.0
same,Preemergence herbicidal rating IPOHE,[8]; rate 0.0625 kg/ha,2.0
same,Preemergence herbicidal rating IPOHE,[8]; rate 0.2500 kg/ha,2.0
same,herbicidal rating IPOHE,[9]; rate 0.0156 kg/ha,9.0
same,herbicidal rating IPOHE,[9]; rate 0.0313 kg/ha,9.0
same,herbicidal rating IPOHE,[9]; rate 0.0625 kg/ha,5.0
same,herbicidal rating AMBEL,"AMBEL (Ragweed, Common) [10]; rate 0.0156 kg/ha",9.0
same,herbicidal rating AMBEL,"AMBEL (Ragweed, Common) [10]; rate 0.0313 kg/ha",9.0
same,herbicidal rating AMBEL,"AMBEL (Ragweed, Common) [10]; rate 0.0625 kg/ha",7.0
same,herbicidal rating GLXMAW,[11]; rate 0.0156 kg/ha,5.5
same,herbicidal rating GLXMAW,[11]; rate 0.0313 kg/ha,6.5
same,herbicidal rating GLXMAW,[11]; rate 0.0625 kg/ha,7.0
same,Preemergence herbicidal rating CASOB,CASOB (Sicklepod) [12]; rate 0.0156 kg/ha,0.0
same,Preemergence herbicidal rating CASOB,CASOB (Sicklepod) [12]; rate 0.0313 kg/ha,0.0
same,Preemergence herbicidal rating CASOB,CASOB (Sicklepod) [12]; rate 0.0625 kg/ha,1.0
same,Preemergence herbicidal rating CASOB,CASOB (Sicklepod) [12]; rate 0.1250 kg/ha,2.0
same,Preemergence herbicidal rating CASOB,CASOB (Sicklepod) [12]; rate 0.2500 kg/ha,1.0

# Source: patent US20020137929A1, “1 - (3-heterocyclylphenyl) isothiourea, -isourea, -guanidine and -amidine herbicidal agents” (Intellectual Property Department, BASF Aktiengesellschaft, priority 1998, published 2002)
